Test results reported in US5488051A, “Substituted 5,6-dihydro-5-oxo-1,4-dithiino-(2,3-d)-pyridazine-2,3-dicarbonitriles, compositions containing them and their use as antimicrobials” (The Dow Chemical Company, priority 1994, dated 1996).
Converted amounts (≈) assume the structure as drawn. Read-outs that look alike come from different tables or passages of the source.

Key:
[1] = system: Bacillus subtilis (Bs); test: MIC for Bacillus subtilis, nutrient agar; format: cell-based, Bacillus subtilis ATCC 8473; conditions: 30° C., 48 hours, read-out: Minimum Inhibitory Concentration (MIC), Bs
Procedure: (§1) The minimum inhibitory concentration (MIC) for the compounds listed in Table I is determined for 9 bacteria, using nutrient agar; and 7 yeast and fungi, using malt yeast agar. A one percent solution of the test compound is prepared in a mixture of acetone and water.
(§2) Nutrient agar is prepared at pH 6.8, representing a neutral medium, and at pH 8.2, representing an alkaline medium. The nutrient agars are prepared by adding 23 g of nutrient agar to one-liter of deionized water. In addition, the alkaline medium is prepared by adjusting a 0.04M solution of N-[tris-(hydroxymethyl)methyl]-glycine buffered deionized water with concentrated sodium hydroxide to a pH of 8.5.
(§3) The test tubes containing the malt yeast agar and the nutrient agar are cooled in a water bath until the temperature of the agar is 48° C. Then, an appropriate amount of the one percent solution of the test compound is added (except in the controls where no compound is added) to the respective test tubes so that the final concentrations are zero (0), 1.0, 2.5, 5, 10, 25, 50, 100, 250 and 500 parts per million of the test compound in each of the respective type of agar. The contents of each of the test tubes are then transferred to separate petri plates. After drying for 24 hours, the petri plates containing nutrient agar are inoculated with bacteria and those containing malt yeast agar are inoculated with yeast and fungi.
(§4) The inoculation with bacteria is accomplished by using the following procedure. Twenty-four hour-cultures of each of the bacteria are prepared by incubating the respective bacteria in tubes containing nutrient broth for 24 hours at 30° C. in a shaker. Dilutions of each of the 24 hour-cultures are made so that nine separate suspensions (one for each of the nine test bacteria) are made, each containing 10^8 colony forming units (CFU) per mL of suspension of a particular bacteria. Aliquots of 0.3 mL of each of the bacterial suspensions are used to fill the individual wells of Steer's Replicator. For each microbial suspension, 0.3 mL was used to fill three wells (i.e., three wells of 0.3 mL each) so that for the nine different bacteria, 27 wells are filled. The Steer's Replicator is then used to inoculate both the neutral and alkaline pH nutrient agar petri plates.
(§5) The inoculated petri plates are incubated at 30° C. for 48 hours and then read to determine if the test compound which is incorporated into the agar prevented growth of the respective bacteria.
(§6) Table II list the bacteria, yeast and fungi used in the MIC test described above along with their respective American Type Culture Collection (ATCC) identification numbers.

[2] = system: Escherichia coli (Ec); test: MIC for Escherichia coli, nutrient agar; format: cell-based, Escherichia coli ATCC 11229; conditions: 30° C., 48 hours, read-out: Minimum Inhibitory Concentration (MIC), Ec
Procedure: as §1, §2, §3, §4, §5, §6

[3] = system: Pseudomonas aeruginosa (Pa); test: MIC for Pseudomonas aeruginosa, nutrient agar; format: cell-based, Pseudomonas aeruginosa ATCC 10145; conditions: 48 hours, read-out: Minimum Inhibitory Concentration (MIC), Pa
Procedure: as §1, §2, §3, §4, §5, §6

[4] = system: Candida albicans (Ca); test: MIC for Candida albicans, malt yeast agar; format: cell-based, Candida albicans ATCC 10231; conditions: malt yeast agar; 30° C., 48 hours for yeast; read-out: Minimum Inhibitory Concentration (MIC), Ca
Procedure: as §1
(§7) Malt yeast agar is prepared by adding 3 g yeast extract and 45 g malt agar per liter of deionized water. The specific agar is dispensed in 30 mL aliquots into 25×200 mm test tubes, capped and autoclaved for 15 minutes at 115° C.
as §3
(§8) The inoculation with the yeast and fungi is accomplished as follows. Cultures of yeast and fungi are incubated for seven days on malt yeast agar at 30° C. These cultures are used to prepare suspensions by the following procedure. A suspension of each organism is prepared by adding 10 mL of sterile saline and 10 microliters of octylphenoxy polyethoxy ethanol to the agar slant of yeast or fungi. The sterile saline/octylphenoxy polyethoxy ethanol solution is then agitated with a sterile swab to suspend the microorganism grown on the slant. Each resulting suspension is diluted into sterile saline (1 part suspension: 9 parts sterile saline). Aliquots of these dilutions are placed in individual wells of Steer's Replicator and petri plates inoculated as previously described. The petri plates are incubated at 30° C. and read after 48 hours for yeast and 72 hours for fungi.
as §6

[5] = system: Saccharomyces cerevisiae; test: MIC for Saccharomyces cerevisiae, malt yeast agar; format: cell-based, Saccharomyces cerevisiae ATCC 4105; conditions: malt yeast agar, 30° C., 48 hours for yeast, read-out: Minimum Inhibitory Concentration (MIC), Sc
Procedure: as §1, §7, §3, §8, §6

[6] = system: Proteus vulgaris (Pv); test: MIC for Proteus vulgaris, nutrient agar; format: cell-based, Proteus vulgaris ATCC 881; conditions: 30° C., 48 hours, read-out: Minimum Inhibitory Concentration (MIC), Pv
Procedure: as §1, §2, §3, §4, §5, §6

[7] = system: Aspergillus niger (An); test: MIC for Aspergillus niger, malt yeast agar; format: cell-based, Aspergillus niger ATCC 16404; conditions: malt yeast agar; 30° C., 72 hours for fungi; read-out: Minimum Inhibitory Concentration (MIC), An
Procedure: as §1, §7, §3, §8, §6

[8] = system: Salmonella choleraesuis; test: MIC for Salmonella choleraesuis, nutrient agar; format: cell-based, Salmonella choleraesuis ATCC 10708; conditions: Salmonella enterica, 30° C., 48 hours, read-out: Minimum Inhibitory Concentration (MIC), SC
Procedure: as §1, §2, §3, §4, §5, §6

[9] = system: Aureobasidium pullulan (Ap); test: MIC for Aureobasidium pullulan, malt yeast agar; format: cell-based, Aureobasidium pullulan ATCC 16622; conditions: malt yeast agar; 30° C.; 48 hours for yeast and 72 hours for fungi; read-out: Minimum Inhibitory Concentration (MIC), Ap
Procedure: as §1, §7, §3, §8, §6

[10] = system: Fusarium oxysporum (Fo); test: MIC for Fusarium oxysporum, malt yeast agar; format: cell-based, Fusarium oxysporum ATCC 48112; conditions: malt yeast agar; 30° C., 72 hours for fungi; read-out: Minimum Inhibitory Concentration (MIC), Fo
Procedure: as §1, §7, §3, §8, §6

[11] = system: Pseudomonas aeruginosa (PRD-10); test: MIC for Pseudomonas aeruginosa PRD-10, nutrient agar; format: cell-based, Pseudomonas aeruginosa ATCC 15442; conditions: 30° C., 48 hours, read-out: Minimum Inhibitory Concentration (MIC), PRD
Procedure: as §1, §2, §3, §4, §5, §6

[12] = system: Staphylococcus aureus (Sa); test: MIC for Staphylococcus aureus, nutrient agar; format: cell-based, Staphylococcus aureus ATCC 6538; conditions: 30° C., 48 hours, read-out: Minimum Inhibitory Concentration (MIC), Sa
Procedure: as §1, §2, §3, §4, §5, §6

[13] = system: Penicillium chrysogenum (Pc); test: MIC for Penicillium chrysogenum, malt yeast agar; format: cell-based, Penicillium chrysogenum ATCC 9480; conditions: malt yeast agar; 30° C., 72 hours for fungi; read-out: Minimum Inhibitory Concentration (MIC), PC
Procedure: as §1, §7, §3, §8, §6

[14] = system: Klebsiella pneumonias (Kp); test: MIC for Klebsiella pneumonias, nutrient agar; format: cell-based, Klebsiella pneumonias ATCC 8308; conditions: 30° C., 48 hours, read-out: Minimum Inhibitory Concentration (MIC), Kp
Procedure: as §1, §2, §3, §4, §5, §6

[15] = system: Enterobacter aerogenes (Ea); test: MIC for Enterobacter aerogenes, nutrient agar; format: cell-based, Enterobacter aerogenes ATCC 13048; conditions: Klebsiella aerogenes, nutrient agar, 30° C., 48 hours, read-out: Minimum Inhibitory Concentration (MIC), Ea
Procedure: as §1, §2, §3, §4, §5, §6

[16] = system: Trichoderma viride (Tv); test: MIC for Trichoderma viride, malt yeast agar; format: cell-based, Trichoderma viride ATCC 8678; conditions: malt yeast agar; 30° C., 72 hours for fungi; read-out: Minimum Inhibitory Concentration (MIC), Tv
Procedure: as §1, §7, §3, §8, §6

Row | Compound | MIC ([1]; pH 6.8, nutrient agar) | MIC ([1]; pH 8.2, nutrient agar) | MIC ([2]; pH 6.8, nutrient agar) | MIC ([2]; pH 8.2, nutrient agar) | MIC ([3]; pH 8.2, 30° C.) | MIC [4] | MIC [5] | MIC ([6]; pH 6.8, nutrient agar) | MIC ([6]; pH 8.2, nutrient agar) | MIC [7] | MIC ([8]; pH 6.8, nutrient agar) | MIC ([8]; pH 8.2, nutrient agar) | MIC [9] | MIC [10] | MIC ([11]; pH 6.8, nutrient agar) | MIC ([11]; pH 8.2, nutrient agar) | MIC ([12]; pH 6.8, nutrient agar) | MIC ([12]; pH 8.2, nutrient agar) | MIC [13] | MIC ([14]; pH 6.8, nutrient agar) | further results
1 | N#CC1=C(C#N)Sc2c(cnn(-c3cccc(Cl)c3)c2=O)S1 [E, 5,6-dihydro-6-(3-chlorophenyl)-5-oxo-1,4-dithiino-(2,3-d)-pyridazine-2,3-dicarbonitrile] | 25 µg/mL (≈ 72.5 µM) | 250 µg/mL (≈ 725 µM) | 500 µg/mL (≈ 1450 µM) | > 500 µg/mL | > 500 µg/mL | 25 µg/mL (≈ 72.5 µM) | 25 µg/mL (≈ 72.5 µM) | 500 µg/mL (≈ 1450 µM) | > 500 µg/mL | 50 µg/mL (≈ 145 µM) | > 500 µg/mL | > 500 µg/mL | 25 µg/mL (≈ 72.5 µM) | 50 µg/mL (≈ 145 µM) | > 500 µg/mL | > 500 µg/mL | 250 µg/mL (≈ 725 µM) | > 500 µg/mL | 25 µg/mL (≈ 72.5 µM) | > 500 µg/mL | MIC ([3]; pH 6.8, 30° C.): > 500 µg/mL; MIC ([14]; pH 8.2, nutrient agar): > 500 µg/mL; MIC ([15]; pH 6.8): > 500 µg/mL; MIC ([15]; pH 8.2): > 500 µg/mL; MIC [16]: 100 µg/mL (≈ 290 µM)
2 | N#CC1=C(C#N)Sc2c(cnn(-c3ccc(Cl)c(Cl)c3)c2=O)S1 [F, 5,6-dihydro-6-(3,4-dichlorophenyl)-5-oxo-1,4-dithiino-(2,3-d)-pyridazine-2,3-dicarbonitrile] | 100 µg/mL (≈ 264 µM) | 500 µg/mL (≈ 1320 µM) | > 500 µg/mL | > 500 µg/mL | > 500 µg/mL | 250 µg/mL (≈ 659 µM) | 250 µg/mL (≈ 659 µM) | > 500 µg/mL | > 500 µg/mL | 250 µg/mL (≈ 659 µM) | > 500 µg/mL | > 500 µg/mL | 100 µg/mL (≈ 264 µM) | 500 µg/mL (≈ 1320 µM) | > 500 µg/mL | > 500 µg/mL | 100 µg/mL (≈ 264 µM) | 250 µg/mL (≈ 659 µM) | 250 µg/mL (≈ 659 µM) | > 500 µg/mL | MIC ([3]; pH 6.8, 30° C.): > 500 µg/mL; MIC ([14]; pH 8.2, nutrient agar): > 500 µg/mL; MIC ([15]; pH 6.8): > 500 µg/mL; MIC ([15]; pH 8.2): > 500 µg/mL; MIC [16]: > 500 µg/mL
3 | N#CC1=C(C#N)Sc2c(cnn(-c3ccc(Cl)cc3Cl)c2=O)S1 [G, 5,6-dihydro-6-(2,4-dichlorophenyl)-5-oxo-1,4-dithiino-(2,3-d)-pyridazine-2,3-dicarbonitrile] | 25 µg/mL (≈ 65.9 µM) | 250 µg/mL (≈ 659 µM) | 250 µg/mL (≈ 659 µM) | > 500 µg/mL | > 500 µg/mL | 50 µg/mL (≈ 132 µM) | 50 µg/mL (≈ 132 µM) | 500 µg/mL (≈ 1320 µM) | > 500 µg/mL | 100 µg/mL (≈ 264 µM) | 500 µg/mL (≈ 1320 µM) | > 500 µg/mL | 50 µg/mL (≈ 132 µM) | 100 µg/mL (≈ 264 µM) | 500 µg/mL (≈ 1320 µM) | > 500 µg/mL | 100 µg/mL (≈ 264 µM) | 250 µg/mL (≈ 659 µM) | 100 µg/mL (≈ 264 µM) | 250 µg/mL (≈ 659 µM) | MIC ([14]; pH 8.2, nutrient agar): 500 µg/mL (≈ 1320 µM); MIC ([15]; pH 6.8): > 500 µg/mL; MIC ([15]; pH 8.2): > 500 µg/mL; MIC [16]: 250 µg/mL (≈ 659 µM)
